Tests used:
ΔF508-CFTR [1] = target: T1, ΔF508-CFTR (Homo sapiens, UniProt P13569, DEL508-508); assay: Short-circuit (apical membrane Cl−) current in FRT cells expressing ΔF508-CFTR, Ussing chamber; assay type: cell-based; set-up: expressed in transfected cells; settings: for EC50 / maximal current compared with genistein: after forskolin 20 μM; for EC50: 27° C. 24 hours, read-out: potency for ΔF508-CFTR currents; for maximal current compared with genistein: genistein 50 μM; for potentiation of the response of ΔF508-CFTR to forskolin: low concentrations of forskolin, potentiator 100 nM
Procedure: Clonal populations of Fischer rat thyroid (FRT) epithelial cells stably co-expressing human ΔF508-CFTR and the high-sensitivity halide-sensing green fluorescent analog YFP-H148Q/I152L (Galietta et al., A.S. (2001) FEBS Lett. 499, 220-224) were generated by liposome transfection and limiting dilution with Zeocin/G418 selection. More than 100 clones were evaluated for high fluorescence and ΔF508-CFTR plasma membrane targeting after growth at 27° C. for 24 hours. For screening, cells were cultured on plastic in Coon's modified F12 medium supplemented with 10% fetal bovine serum, 2 mM L-glutamine, 100 U/ml penicillin, and 100 μg/ml streptomycin, and plated on black 96-well microplates (Corning-Costar 3904) at 30,000 cells/well. For short-circuit measurements cells were cultured on Snapwell permeable supports (Corning-Costar) at 500,000 cells/insert. Human nasal epithelium cells from CF patients were cultured on Snapwell inserts and allowed to differentiate in a hormone-supplemented medium (Galietta et al., Am. J. Physiol., […]). Some measurements were done using stably transfected FRT cells expressing YFP-H148Q and wildtype- or G551D-CFTR (Galietta et al., (2001) J. Biol. Chem. 276, 19723-19728). Patch clamp experiments were done on ΔF508-CFTR-expressing FRT cells plated in 35-mm Petri dishes.
Using chamber experiments were performed 7-9 days after plating ΔF508-CFTR expressing FRT cells on Snapwell inserts. The basolateral solution contained (in mM): 130 NaCl, 2.7 KCl, 1.5 KH2PO4, 1 CaCl2, 0.5 MgCl2, 10 glucose, 10 Na-Hepes (pH 7.3). In the apical bathing solution 65 mM NaCl was replaced by Na gluconate, and CaCl2 was increased to 2 mM. Solutions were bubbled with air and maintained at 37° C. The basolateral membrane was permeabilized with 250 μg/ml amphotericin B. The hemichambers were connected to a DVC-1000 voltage clamp (World Precision Instruments) via Ag/AgCl electrodes and 1 M KCl agar bridges for recording short-circuit current.
Experiments were done after basolateral membrane permeabilization and in the presence of a transepithelial Cl^− gradient, so that short-circuit current represents apical membrane Cl^− current. […] Cells were plated on a permeable support to generate a polarized epithelium, cultured for 5-7 days, and then incubated at 27° C. for 24 hours. Transepithelial chloride current was measured in a modified Ussing chamber in the presence of a chloride gradient.

ΔF508-CFTR [2] = target: T1, ΔF508-CFTR; assay: Fluorescence (YFP-H148Q/I152L) I− influx assay of ΔF508-CFTR potentiator activity in FRT cells; assay type: cell-based; set-up: expressed in transfected cells; settings: 27° C. 24 h, forskolin 20 μM, read-out: Ka
Outline: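 FRT cells stably co-expressing ΔF508-CFTR and YFP-H148Q/I152L were held at 27 °C for 18–24 h, then given forskolin (20 μM final) and test compounds at 2.5 μM for about 15 min. I− influx rate came from the initial slope of YFP quenching after Cl− was replaced by I−, normalized to total fluorescence.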

T1 sequence (P13569 with tags, fused parts or gaps DEL508-508): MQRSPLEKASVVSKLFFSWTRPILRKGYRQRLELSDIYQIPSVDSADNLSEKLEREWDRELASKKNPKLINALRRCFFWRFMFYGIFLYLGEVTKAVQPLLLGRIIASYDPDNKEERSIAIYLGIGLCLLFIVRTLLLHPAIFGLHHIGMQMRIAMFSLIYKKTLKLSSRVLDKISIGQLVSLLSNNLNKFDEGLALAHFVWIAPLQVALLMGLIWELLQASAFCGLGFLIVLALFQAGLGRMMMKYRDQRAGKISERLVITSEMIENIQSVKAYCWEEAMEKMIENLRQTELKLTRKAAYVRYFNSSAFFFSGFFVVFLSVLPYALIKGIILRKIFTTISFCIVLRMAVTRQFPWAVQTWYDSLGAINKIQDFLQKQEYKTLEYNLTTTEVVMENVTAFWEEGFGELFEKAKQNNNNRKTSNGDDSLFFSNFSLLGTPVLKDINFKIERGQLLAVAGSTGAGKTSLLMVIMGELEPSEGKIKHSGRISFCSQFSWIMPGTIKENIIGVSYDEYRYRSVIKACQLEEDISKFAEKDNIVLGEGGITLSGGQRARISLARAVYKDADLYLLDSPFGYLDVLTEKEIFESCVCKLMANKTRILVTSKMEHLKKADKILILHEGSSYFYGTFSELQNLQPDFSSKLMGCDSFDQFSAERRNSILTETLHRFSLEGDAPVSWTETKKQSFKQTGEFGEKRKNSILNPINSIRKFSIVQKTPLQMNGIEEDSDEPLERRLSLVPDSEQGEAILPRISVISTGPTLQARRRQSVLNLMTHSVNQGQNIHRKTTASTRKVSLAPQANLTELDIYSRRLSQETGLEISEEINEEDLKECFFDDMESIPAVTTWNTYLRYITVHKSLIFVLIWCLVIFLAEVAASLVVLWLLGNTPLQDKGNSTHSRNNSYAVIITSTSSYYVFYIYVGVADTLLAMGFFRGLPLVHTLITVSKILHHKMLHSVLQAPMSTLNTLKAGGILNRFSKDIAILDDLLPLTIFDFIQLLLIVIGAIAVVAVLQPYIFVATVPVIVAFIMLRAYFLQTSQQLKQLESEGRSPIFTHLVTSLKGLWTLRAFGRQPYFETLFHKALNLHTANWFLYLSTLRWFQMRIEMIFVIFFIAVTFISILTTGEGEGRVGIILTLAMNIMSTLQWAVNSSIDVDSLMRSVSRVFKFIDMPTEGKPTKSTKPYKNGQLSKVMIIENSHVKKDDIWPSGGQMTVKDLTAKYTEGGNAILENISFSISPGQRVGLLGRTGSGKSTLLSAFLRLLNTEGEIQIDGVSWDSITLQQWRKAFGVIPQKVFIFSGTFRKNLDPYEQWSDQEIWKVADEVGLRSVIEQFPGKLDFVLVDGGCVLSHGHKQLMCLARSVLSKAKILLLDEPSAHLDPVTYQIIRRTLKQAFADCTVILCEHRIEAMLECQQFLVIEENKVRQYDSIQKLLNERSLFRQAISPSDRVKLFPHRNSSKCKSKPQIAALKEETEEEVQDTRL

Compound | EC50 (ΔF508-CFTR [1]) | maximal current compared with genistein (ΔF508-CFTR [1]) | potentiation of the response of ΔF508-CFTR to forskolin (ΔF508-CFTR [1]) | EC50 (ΔF508-CFTR [2]; sulfonamide containing compounds) | EC50 (ΔF508-CFTR [2]; phenylglycine containing compounds)
C=CCNC(=O)c1c[nH]c2ccc(S(=O)(=O)N(C)c3ccccc3OCC)cc2c1=O [Compound S-1, 6-[(2-Ethoxy-phenyl)-methyl-sulfamoyl]-4-oxo-1,4-dihydro-quinoline-3-carboxylic acid allylamide] | < 100 nM | comparable to or greater than that produced by 50 μM genistein | significant increase in current induced by low concentrations of forskolin | 300 nM | 
CC(C)c1ccc(NC(=O)C(c2ccccc2)N(C)C(=O)Cc2c[nH]c3ccccc23)cc1 (centres unmarked) [Compound P-1, 2-[(2-1H-Indol-3-yl-acetyl)-methyl-amino]-N-(4-isopropyl-phenyl)-2-phenyl-acetamide] | < 100 nM | comparable to or greater than that produced by 50 μM genistein | significant increase in current induced by low concentrations of forskolin |  | 300 nM

Source: patent publication US7939558B2, “Compounds having activity in increasing ion transport by mutant-CFTR and uses thereof” (The Regents of the University of California, priority 2004, dated 2011)
